According to ChEMBL document CHEMBL1125944, “Imidazo[1,2-a]piperazines as mechanistic inhibitors of serine proteinases” (Bioorg Med Chem Lett, 1991):

Target: T1, Neutrophil elastase (Homo sapiens, UniProt P08246)
T1 sequence (P08246 whole entry): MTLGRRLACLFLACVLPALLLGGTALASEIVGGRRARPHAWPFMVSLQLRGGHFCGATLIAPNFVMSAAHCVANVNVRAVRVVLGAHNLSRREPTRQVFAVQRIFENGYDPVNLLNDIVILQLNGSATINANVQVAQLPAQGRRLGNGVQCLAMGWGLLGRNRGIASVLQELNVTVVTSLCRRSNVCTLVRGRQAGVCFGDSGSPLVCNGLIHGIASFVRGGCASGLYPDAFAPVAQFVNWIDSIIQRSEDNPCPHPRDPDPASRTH
Assay: Compound was tested for its inhibitory activity against human leukocyte Elastase (HLE)

SMILES: CC(C)C1N=C2CN(C3Cc4ccccc4C3)C(=O)[C@H](C(C)C)N2C1(O)C(F)(F)F (stereo partly specified)
- IC50: 8.74 µM
